Source: patent publication US20250304600A1, “PHARMACEUTICAL COMPOUNDS AND COMPOSITIONS AS c-KIT KINASE INHIBITORS” (Enanta Pharmaceuticals, Inc., priority 2023, published 2025)

What was measured:
[1] = molecular target: T1, Recombinant human c-KIT kinase (Homo sapiens, UniProt P10721); experiment: c-KIT kinase chemiluminescence assay (ADP-Glo); type: biochemical; conditions: ATP 50 μM
T1 construct: purchased Promega V4498
Procedure: The c-KIT Kinase Enzyme System (V4498) and ADP-Glo™ Kinase Assay kit (V6930) were purchased from Promega (Madison, WI). DMSO (D2650) was purchased from Sigma-Aldrich (Burlington, MA).
c-KIT Kinase Chemiluminescence Assay:
Kinase Reaction: The kinase assay was based on the recommended protocol by c-KIT Kinase Enzyme System from Promega. Recombinant human c-KIT kinase in 3 μL of assay buffer (40 mM Tris pH 7.5, 20 mM MgCl2, 0.1 mg/mL BSA and 50 μM DTT) was added to the test or high control wells and 3 μL of assay buffer was added to the low control wells. The microplate was centrifuged at 800 rotations per minute (rpm) for 60 s and incubated at room temperature (RT) for 30 min. Next, 2 μL of buffered ATP and polyEY substrate solution was added to all wells. The microplate was centrifuged at 800 rpm for 60 s and incubated at RT for 2 h.
ADP detection with ADP-Glo™ Kinase Assay: After the kinase reaction incubation, 5 μL of ADP-Glo™ reagent was added to all wells. The microplate was centrifuged at 800 rpm for 60 s and incubated at RT for 40 min. Ten microliter (10 μL) of Kinase Detection Reagent (Luciferin-Luciferase system) was then added to all wells. The microplate was centrifuged at 800 rpm for 60 s and incubated at RT for 60 min. Kinase activity was measured as an increase in luminescence at RT in an Envision plate reader equipped with 560 nm filters and operating in endpoint mode.
Data Analysis: Endpoint chemiluminescence from high and low control wells were used to calculate normalized c-KIT activity at various concentrations of test compounds. The normalized activities were fitted to inhibitor-versus-normalized response fit in GraphPad Prism 7 to determine half-maximal inhibitory concentration (IC50) and hill coefficient values (H).
Where I is the inhibitor concentration and H is the Hill coefficient.

[2] = test system: M-07e cells which endogenously express human c-KIT; experiment: M-07e cellular assay: SCF-mediated cell proliferation (CellTiter Glo); type: cell-based; conditions: 72 h, SCF-mediated proliferation of M-07e cells
Procedure: M-07e cells (Creative Bioarray, CSC-C0249) which endogenously express human c-KIT were used to evaluate the effect of compounds on stem cell factor (SCF)-mediated cell proliferation. M-07e cells were cultured in growth media (RPMI+10% FBS+1% penicillin/streptomycin+10 ng/mL GM-CSF) at 5E5-1.5E6 cells/mL, replenishing media every 3-4 days. 1.5E4 cells were seeded per well in 384 well tissue culture treated plates in […] assay media (RPMI+10% FBS+1% penicillin/streptomycin) without growth factor stimulation and incubated at 37° C. in a CO2 humidity-controlled incubator. Twenty-four hours later, three-fold serially diluted test compounds in media containing SCF (at the previously determined EC90) were added to the plated M-07e cells and incubated for an additional 72 hours. Cell viability was determined by adding 25 μL CellTiter Glo (Promega) to the cells and the luminescence was measured using a Perkin Elmer Envision plate reader. The EC50 was determined using GraphPad Prism. Percent cell growth was determined after normalizing the curve to the mean RLU high control (no compound control wells) at 100% and the mean RLU low control (no SCF control wells) at 0%.

T1 sequence (P10721 544-976 limits assumed): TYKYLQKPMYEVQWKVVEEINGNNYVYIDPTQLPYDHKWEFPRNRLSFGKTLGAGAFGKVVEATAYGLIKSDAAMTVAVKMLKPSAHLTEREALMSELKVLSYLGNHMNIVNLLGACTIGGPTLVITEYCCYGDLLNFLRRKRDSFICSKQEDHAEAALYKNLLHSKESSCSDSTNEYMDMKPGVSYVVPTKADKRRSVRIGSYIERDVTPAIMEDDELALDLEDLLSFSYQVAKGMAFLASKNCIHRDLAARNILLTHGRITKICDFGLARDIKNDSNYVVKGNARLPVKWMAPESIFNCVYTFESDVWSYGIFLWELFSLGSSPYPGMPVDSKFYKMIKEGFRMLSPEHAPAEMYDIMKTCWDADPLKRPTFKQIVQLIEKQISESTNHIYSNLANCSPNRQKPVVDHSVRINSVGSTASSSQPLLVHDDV

Structure (SMILES) | IC50 [1] [nM] | EC50 [2] [nM]
Cc1ccc(-c2noc([C@H]3C[C@@H]3C(F)F)n2)cc1NC(=O)c1cnn2ccc(-c3c(C)nc(N)nc3C)cc12 [Example 390] | 100 to 1000 | 100 to 1000
Cc1ncc(-c2ncc(OC(F)(F)F)cn2)cc1NC(=O)c1cnn2ccc(N3CC4(C3)CC(O)(C(F)F)C4)cc12 [Example 313] | 100 to 1000 | < 100
Cc1ncc(-c2nnc(C3C[C@@H]3F)o2)cc1NC(=O)c1cnn2ccc(N3CC4(C3)CC(O)(C(F)F)C4)cc12 (stereo partly drawn) [Example 404] | 100 to 1000 | 100 to 1000
Cc1ccc(-c2noc(C3C[C@@H]3F)n2)cc1NC(=O)c1cnc(-c2cnc(N3CC(O)(C(F)(F)F)C3)nc2)o1 (stereo partly drawn) [Example 402] | > 1000 | 100 to 1000
Cc1ncc(-c2noc([C@H]3C[C@@H]3C(F)F)n2)cc1NC(=O)c1ccc(N)nc1 [Example 401] | > 1000 | 100 to 1000
Cc1ccc(-c2noc(C3C[C@@H]3C(F)F)n2)cc1NC(=O)c1ccc(NC(=O)OC(C)(C)C)nc1 (stereo partly drawn) [Example 398] | > 1000 | > 1000
